Results on 83 compounds are retold here after PubChem BioAssay AID463206 (Broad Institute, 2010).

Calls of active or inactive are those of the source.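 The calls were made as follows: active = caspase luminescence falls with dose and the half-maximal concentration AC50 from the fitted curve is at or below a set limit; inconclusive = flat fit at 30 to 70% signal loss, or invalid fit; inactive = AC50 above the limit, or signal rises instead.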

The test concerns INS-1E cytokine-induced caspase-3/7, Caspase-Glo luminescence, 48 h. In words: suppression of cytokine-driven beta-cell apoptosis – INS-1E rat cells, luminescence, orthogonal assay for beta-cell apoptosis protection project, dose response (AID 463206).

For the compound `COc1ccc(C)cc1NS(=O)(=O)c1ccc(NC(=O)CN(c2cc([N+](=O)[O-])ccc2C)S(C)(=O)=O)cc1`, the AC50 was > 26 µM (inactive).
The same measure for `Cc1ccc(NC(=O)c2cc(S(=O)(=O)NCCC3=CCCCC3)ccc2F)cc1F`: > 26 µM (inactive).
Turning to `O=C(CCSc1nc2ccccc2s1)N/N=C/c1c(O)ccc2ccccc12`, the AC50 is > 26 µM (inactive).
The same measure for `CC(C)C[C@H](NC(=O)c1nc[nH]c1C(=O)N[C@@H](CC(C)C)C(=O)OC(C)(C)C)C(=O)OCc1ccccc1`: > 26 µM (inactive); for `O=S(=O)(c1ccc(Cl)cc1)N1CCN(Cc2ccc(O)c3ncccc23)CC1`: > 26 µM (inactive).
Turning to `CCOc1cc(/C=C2\CCC/C(=C\c3cc(Cl)c(O)c(OCC)c3)C2=O)cc(Cl)c1O`, the AC50 is 9.51 µM.
The figure for `CC(=O)N1CCCc2cc(S(=O)(=O)N3CCCC(C(=O)N4CCN(c5cccc(Cl)c5)CC4)C3)ccc21` (stereo not drawn) is > 26 µM (inactive); for `COc1ccc(S(=O)(=O)N2CCNCC2)cc1OC` it is > 26 µM (inactive); for `Cc1oc2c(c1C(=O)N1CCOCC1)C(=O)c1ccccc1C2=O` it is > 26 µM (inactive).
For the compound `COc1ccc2[nH]c(C(=O)N/N=C/c3ccc(O)cc3O)cc2c1`, the AC50 is > 26 µM (inactive).
The same measure for `c1ccc(CNc2c(-c3cccc(SC4CCCCC4)c3)nc3ccccn23)cc1`: > 26 µM (inactive); for `CC(=O)NC(c1cccs1)c1cc(F)c2cccnc2c1O` (stereo not drawn): > 26 µM (inactive).
The figure for `CN(C)CC(C(=O)c1ccccc1)c1ccccc1` (stereo not drawn) is > 26 µM (inactive).
For the compound `Cc1cc(S(=O)(=O)NCc2ccncc2)c(C)cc1Br`, the AC50 is > 26 µM (inactive).
On to `COc1cc(CN2CCN(c3cc(C)ccc3C)CC2)ccc1O`, for which the AC50 was > 26 µM (inactive).
On to `O=C(NCc1cccnc1)c1ccc([N+](=O)[O-])cc1`, for which the AC50 was > 26 µM (inactive).
`Cc1cc([N+](=O)[O-])nn1Cc1ccc(C(=O)N/N=C/c2ccc(O)cc2O)cc1`: the AC50 is > 26 µM (inactive).
The figure for `COc1ccc(N=Nc2ccc(O)c3ncccc23)cc1` is > 12 µM (inactive); for `O=c1c2ccccc2nc(N/N=C/c2c(O)ccc3ccccc23)n1O` it is > 26 µM (inactive).
Regarding `CCOC(=O)c1c(C)[nH]c(C(=O)N/N=C\c2ccccc2O)c1C`, the AC50 was > 26 µM (inactive).
For `COc1ccc2nc(C)cc(SCC(=O)N/N=C/c3ccc(O)cc3O)c2c1`, the AC50 is > 26 µM (inactive).
The same measure for `COc1ccc(-c2csc(NC(=O)C3CCN(c4ncnc5sc(C)c(C)c45)CC3)n2)cc1OC`: > 26 µM (inactive); for `CCCCCCc1cc2cc(-c3nnc(-c4ccccc4)o3)c(=O)oc2cc1O`: > 26 µM (inactive); for `CC1CCCCC1NS(=O)(=O)c1ccc(S(=O)(=O)NCc2ccncc2)cc1` (stereo not drawn): > 26 µM (inactive).
Regarding `O=C1CSC(c2ccccc2F)N1` (stereo not drawn), the AC50 is > 26 µM (inactive).
The same measure for `CCOc1ccc(S(=O)(=O)N2CCCCC2)cc1NC(=O)CN1CCCC1c1cccs1` (stereo not drawn): > 26 µM (inactive); for `Cc1cccc(C(=O)Nc2ccc(C(=O)/C=C/c3cccnc3)cc2)c1`: > 26 µM (inactive); for `CC1=C/C(=N\OS(=O)(=O)c2ccccc2)C(C)=CC1=O`: > 26 µM (inactive).
The same measure for `Cc1cc(C)n(-c2nc(Nc3ccccc3C(F)(F)F)nc(-n3nc(C)cc3C)n2)n1`: > 26 µM (inactive).
The same measure for `Cc1ccc2[nH]c3c(N4CCc5ccccc5C4)ncnc3c2c1`: > 26 µM (inactive); for `O=C(CCl)N(c1ccccc1)C1CCCCC1`: > 26 µM (inactive); for `CCOc1ccc(N=Cc2c(C)[nH]n(-c3nc4ccccc4[nH]3)c2=O)cc1`: > 26 µM (inactive).
Take `CCN(CC)c1ccc(/C=N/NC(=O)c2cccc(S(=O)(=O)Nc3ccccc3OC)c2)c(O)c1`: the AC50 is > 26 µM (inactive).
For `CN1/C(=C\C(=S)NC(=O)c2ccccc2Cl)C(C)(C)c2ccccc21`, the AC50 is > 26 µM (inactive).
As to `COc1ccccc1NS(=O)(=O)c1cccc(NC(=O)c2[nH]c(C)c(C(C)=O)c2C)c1`, the AC50 was > 26 µM (inactive).
In the case of `Oc1c(Cl)cc(Cl)cc1/C=N/Nc1ncc(Br)cn1`, the AC50 was > 26 µM (inactive).
The same measure for `COc1ccc(N/N=C/c2c(C(=O)O)ccc3ccccc23)cc1`: > 26 µM (inactive); for `CCO[C@H]1OC(C(=O)N2CCN(Cc3ccc4c(c3)OCO4)CC2)=C[C@@H](c2csc3ccccc23)[C@@H]1CCCO`: > 26 µM (inactive).
Turning to `Cn1cc(/C=C/c2cc[n+](C)cc2)c2cc(Cl)ccc21`, the AC50 was > 26 µM (inactive).
The same measure for `COc1ccc(CCNc2c3ccccc3nc3ccccc23)cc1OC`: 4.3 µM; for `N#CC1=C(N)Oc2c(ccc3cccnc23)C1c1cccnc1` (stereo not drawn): > 26 µM (inactive); for `CCCCC[n+]1ccn(C2=C([O-])c3ccccc3C(=O)/C2=N\S(=O)(=O)c2ccc(Cl)cc2)c1`: > 26 µM (inactive).
The same measure for `CCCCn1cnc2c(c(-c3ccccc3)c(-c3ccccc3)n2Cc2ccco2)c1=N`: > 26 µM (inactive); for `CC(=O)NC(c1cccs1)c1cc([N+](=O)[O-])c2cccnc2c1O` (stereo not drawn): > 26 µM (inactive); for `CCCC(C)C(=O)Nc1nc(C)c(-c2csc(Nc3ccc(Cl)cc3)n2)s1` (stereo not drawn): > 26 µM (inactive).
The same measure for `Cc1ccc(NC2=C/C(=N\S(=O)(=O)c3cccs3)c3ccccc3C2=O)c(C)c1`: > 26 µM (inactive); for `COc1ccccc1NC1=C(N2CCCCC2)C(=O)c2ccccc2C1=O`: > 26 µM (inactive).
Turning to `CC(=O)Nc1ccc(NC(=O)CN(c2cccc([N+](=O)[O-])c2)S(C)(=O)=O)cc1`, the AC50 was > 26 µM (inactive).
The figure for `Cc1cc(C)c2nc(NNC(=O)c3ccc(S(=O)(=O)N4CCc5ccccc5C4)cc3)sc2c1` is > 26 µM (inactive).
`Cc1cc(Cl)c(S(=O)(=O)N2CCN(c3ccc(F)cc3)CC2)cc1OCC(=O)NC1CCCCC1`: the AC50 is > 26 µM (inactive).
As for `CCOc1cc(-c2sc(Nc3cc(C)ccc3OC)n[n+]2-c2ccccc2)ccc1OC`, the AC50 is > 26 µM (inactive).
The figure for `Cc1[nH]n(-c2ccccc2)c(=O)c1N=Nc1c(O)cc(S(=O)(=O)N(C)C)c2ccccc12` is > 26 µM (inactive).
The figure for `O=C(N/N=C/c1ccc(O)cc1O)c1ccc(CN2C(=O)c3cccc4cccc2c34)cc1` is > 26 µM (inactive); for `COc1ccc(CC(=O)Nc2ccncc2Cl)cc1` it is > 26 µM (inactive).
The same measure for `O=C(c1cc2sccc2n1Cc1ccc(F)cc1)N1CCN(c2nc3ccccc3s2)CC1`: > 26 µM (inactive); for `COc1ccc(C(=O)/C(C#N)=N/Nc2ccc([N+](=O)[O-])cc2)cc1`: > 26 µM (inactive).
With `S=C(NCCCN1CCOCC1)N1CCN(c2nc(-c3ccc(Cl)cc3)cs2)CC1`, the AC50 was > 12 µM (inactive).
The same measure for `CCCCCCCCCCOC(=O)Cn1c(COc2cccc(OC)c2)[n+](C)c2ccccc21`: > 26 µM (inactive); for `C/C(=N/Nc1nc(-c2ccccc2)cc(-c2ccc(F)cc2)n1)c1cccc(N)c1`: > 26 µM (inactive).
With `Cn1nc(-c2ccc(Cl)cc2)nc2c(=O)n(C)c(=O)nc1-2`, the AC50 is > 26 µM (inactive).
For `O=C(Nc1ccc(Cl)cc1)c1nc[nH]c1C(=O)NCCN(CCNC(=O)c1[nH]cnc1C(=O)Nc1ccc(Cl)cc1)CCNC(=O)c1[nH]cnc1C(=O)Nc1ccc(Cl)cc1`, the AC50 was > 26 µM (inactive).
The same measure for `Cc1ccc2nc(-c3ccc(-c4cccc(Cl)c4)cc3)c(NCc3ccccc3)n2c1`: > 26 µM (inactive); for `CCOC(=O)C1CCN(C(=O)c2c(C)oc3c2C(=O)c2ccccc2C3=O)CC1`: > 26 µM (inactive); for `CC#CC[N+](C)(C)CCCCCCCCCCCC`: > 26 µM (inactive).
`O=C(N/N=C/c1cc(Br)cc(Cl)c1O)c1ccc2c(c1)OCO2`: the AC50 was > 26 µM (inactive).
For `CCCC[C@@H](CN[C@H](C)CNC)NCC1CCC(C(C)(C)C)CC1` (stereo partly drawn), the concentration at half-maximal activity (AC50) is 25.6 µM.
As to `Cc1cc(N/N=C/c2ccc(F)cc2)nc(-n2nc(C)cc2C)n1`, the AC50 was > 26 µM (inactive).
In the case of `COc1ccc(CCNc2ccc(C(CC(N)=O)NC(=O)c3ccc(Br)cc3)cc2[N+](=O)[O-])cc1` (stereo not drawn), the AC50 was > 26 µM (inactive).
As for `CCCOc1cc(NCc2ccccc2)c2ncn(C(C)C)c2c1`, the AC50 is > 26 µM (inactive).
The same measure for `CCN(CC)c1ccc(/C=N/NC(=O)c2c(Cl)cnn2C)c(O)c1`: > 26 µM (inactive); for `Cn1nc(C(C)(C)C)cc1C(=O)NCc1ccc(N2CCCC2=O)cc1`: > 26 µM (inactive); for `CC(NCC(O)COCCC12CC3CC(CC(C3)C1)C2)c1ccccc1` (stereo not drawn): > 26 µM (inactive).
Regarding `O=C(Nc1ccc(Cl)cc1)Nc1nnc(-c2ccncc2)s1`, the AC50 was > 26 µM (inactive).
The same measure for `Oc1ccc(CN2CCc3ccccc3C2)c2cccnc12`: > 26 µM (inactive).
The same measure for `COc1ccc(-c2nn(-c3ccccc3)cc2/C=N/Nc2ccc3ccccc3n2)cc1OC`: > 26 µM (inactive); for `N#C/C(N=Nc1ccccc1O)=N\Nc1ccccc1O`: > 26 µM (inactive).
The same measure for `CC(C)(C)n1ncc2c(=O)n(Cc3cccc(Cn4cnc5c(cnn5C(C)(C)C)c4=O)c3F)cnc21`: > 26 µM (inactive).
For `COc1ccc(-c2c[n+]3c(n2-c2ccccc2)CCCCC3)cc1`, the AC50 was > 26 µM (inactive).
The same measure for `CCN(CC)c1ccc(/C=N/NC(=O)c2cnccn2)c(O)c1`: > 26 µM (inactive); for `CNC[C@H](CC1CCCCC1)NC[C@H](Cc1ccccc1)NCCC12CC3CC(CC(C3)C1)C2`: > 26 µM (inactive); for `COc1ccc(Cn2cc3c(-c4ccc(F)cc4)nnc-3c3cc(OC)c(OC)cc32)cc1`: 12.9 µM.
The same measure for `CNC[C@H](Cc1ccccc1)NC[C@@H](Cc1cccc2ccccc12)NCCc1ccc(C)cc1`: > 26 µM (inactive); for `Cc1ccc(C)c(S(=O)(=O)Nc2cc(SCC(=O)O)c(O)c3ccccc23)c1`: > 26 µM (inactive).
